20 compounds from ChEMBL document CHEMBL1136664, “N-Phenyl-N-purin-6-yl ureas: the design and synthesis of p38alpha MAP kinase inhibitors” (Bioorg Med Chem Lett, 2003) can be followed below.

Converted amounts (≈) assume the structure as drawn.

The target in data set [1] is Mitogen-activated protein kinase 14 (Homo sapiens, UniProt Q16539). Put plainly: Inhibition of human MAP p38-alpha kinase in vitro.
Data set [2] in a line: Aqueous solubility at pH 7.4. Type of data set: physicochemical.

Chain of Mitogen-activated protein kinase 14 (Q16539 whole entry): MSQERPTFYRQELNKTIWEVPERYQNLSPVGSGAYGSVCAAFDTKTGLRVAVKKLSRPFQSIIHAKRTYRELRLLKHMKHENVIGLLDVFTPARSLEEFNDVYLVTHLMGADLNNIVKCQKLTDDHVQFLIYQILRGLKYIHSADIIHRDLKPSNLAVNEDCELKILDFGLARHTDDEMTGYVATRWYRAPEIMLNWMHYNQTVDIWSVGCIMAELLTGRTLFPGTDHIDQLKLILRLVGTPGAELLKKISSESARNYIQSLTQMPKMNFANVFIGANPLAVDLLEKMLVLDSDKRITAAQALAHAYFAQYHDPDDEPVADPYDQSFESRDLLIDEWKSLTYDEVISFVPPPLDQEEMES

By IC50 is commonly meant the midpoint of a concentration-inhibition curve. A higher IC50 goes with a need for much substance. In data set [1], `NC(=O)N(c1c(F)cccc1F)c1nc(-c2ccccc2F)nc2c1ncn2Cc1ccccc1` showed an IC50 of 16 nM.

`Cc1ccc(-c2nc(N(C(N)=O)c3c(F)cccc3F)c3ncn(C)c3n2)cc1` gave an IC50 in data set [1] of 2100 nM.

`Cc1cccc(-c2nc(N(C(N)=O)c3c(F)cccc3F)c3ncn(C)c3n2)c1`: in data set [1], the IC50 came to 350 nM. As for `Cn1cnc2c(N(C(N)=O)c3c(F)cccc3F)nc(-c3cc(F)cc(F)c3)nc21`, the IC50 in data set [1] was above 16700 nM. Turning to `Cc1cc(F)ccc1-c1nc(N(C(N)=O)c2c(F)cc(F)cc2F)c2ncn(C)c2n1`, in data set [1], the midpoint of inhibition, the IC50, lay at 163 nM. As to `Cc1cc(F)ccc1-c1nc(N(C(N)=O)c2ccc(F)cc2)c2ncn(C)c2n1`, the IC50 in data set [1] is 1400 nM. As for `Cc1ccccc1-c1nc(N(C(N)=O)c2c(F)cccc2F)c2ncn(C)c2n1`, in data set [1], the IC50 worked out at 140 nM. Still for that read-out and setting: under `Cc1cc(F)ccc1-c1nc(N(C(N)=O)c2ccccc2Cl)c2ncn(C)c2n1` stands 123 nM; under `Cn1cnc2c(N(C(N)=O)c3c(F)cccc3F)nc(-c3ccccc3)nc21`, 510 nM; under `Cc1cc(F)ccc1-c1nc(N(C(N)=O)c2ccccc2)c2ncn(C)c2n1`, above 16700 nM.

Take `Cn1cnc2c(N(C(N)=O)c3c(F)cccc3F)nc(-c3ccc(F)cc3F)nc21`: the IC50 in data set [1] was found to be 26 nM. Regarding `Cc1cc(F)ccc1-c1nc(N(C(N)=O)c2c(F)cccc2F)c2ncn(C)c2n1`, the IC50 in data set [1] is 128 nM. In data set [1], `Cn1cnc2c(N(C(N)=O)c3c(F)cccc3F)nc(-c3cccc(F)c3)nc21` registered an IC50 of 5000 nM. Still for that read-out and setting: in the case of `Cn1cnc2c(N(C(N)=O)c3c(F)cccc3F)nc(-c3ccc(F)cc3)nc21` it was 1000 nM; in that of `COc1ccccc1N(C(N)=O)c1nc(-c2ccc(F)cc2C)nc2c1ncn2C`, above 16700 nM; in that of `Cn1cnc2c(N(C(N)=O)c3c(F)cccc3F)nc(-c3cccc(Cl)c3)nc21`, 550 nM. Usually solubility stands for how much of the substance goes into solution per volume. A high value points to a readily soluble substance. For `CN(C)CCn1cnc2c(N(C(N)=O)c3c(F)cccc3F)nc(-c3ccccc3F)nc21`, in data set [1], the IC50 was found to be 82 nM. Moreover, in data set [2], the solubility was above 20 µM.

Take `Cn1cnc2c(N(C(N)=O)c3c(F)cccc3F)nc(-c3ccccc3F)nc21`: in data set [1], 36 nM corresponded to half-maximal inhibition (IC50). This compound came in with a solubility in data set [2] of 1 µM (≈ 0.398 µg/mL). As for `Cc1cc(F)ccc1-c1nc(N(C(N)=O)c2ccc(Cl)cc2)c2ncn(C)c2n1`, the IC50 in data set [1] was determined as 9800 nM. Same read-out and setting: under `Cn1cnc2c(N(C(N)=O)c3c(F)cccc3F)nc(-c3ccccc3Cl)nc21` stands 30 nM.
